Measurements as given in patent US20090149469A1, “Phenyl-[4-(3-phenyl-1h-pyrazol-4-yl)-pyrimidin-2-yl]-amine derivatives as igf-ir inhibitors” (priority 2004, published 2009).

Biological target: T1, human IGF-IR (Homo sapiens, UniProt P08069)
T1 construct: complete human IGF-IR cDNA: GenBank Acc; No. NM_000875; expressed in transfected cells; host or cells: NIH-3T3 mouse fibroblasts
Test: cellular Capture ELISA: IGF-I induced autophosphorylation of IGF-IR in NIH-3T3 cells transfected with human IGF-IR
Assay type: cell-based
Settings: by the methods described above
Description: In this assay the activity of the compounds of the invention against Insulin-like growth factor I (IGF-1) induced autophosphorylation of the IGF-IR is determined. The assay is conducted as follows: For the assay NIH-3T3 mouse fibroblasts transfected with human IGF-IR cDNA (complete human IGF-IR cDNA: GenBank Acc. No. NM_000875), prepared as described in Kato et al., J. Biol. Chem. 268, 2655-61, 1993, are used. The cells which overexpress human IGF-IR are cultured in Dulbecco's minimal essential (DMEM) medium, containing 10% Fetal Calf Serum (FCS). For the assay 5,000 cells/well are plated on day 1 on 96-well plates (Costar #3595) in normal growth medium and incubated for 2 days at 37° C. in a standard CO2 cell incubator. […] On day 3 the medium is discarded and the cells are incubated for 24 h in minimal medium (DMEM, containing 0.5% FCS). […]
90 μl/well AP substrate (CDP-Star; obtained from Tropix; Cat. No.: MS100RY) are then added and the plates are incubated for 45 min at RT in the dark, followed by measuring AP activity in a Packard Top Count Microplate Scintillation Counter. The IC50 values for the compounds of formula I are calculated via linear regression analysis using the GraphPad Instat program (GraphPad Software, USA). […]

T1 sequence (P08069 31-1367): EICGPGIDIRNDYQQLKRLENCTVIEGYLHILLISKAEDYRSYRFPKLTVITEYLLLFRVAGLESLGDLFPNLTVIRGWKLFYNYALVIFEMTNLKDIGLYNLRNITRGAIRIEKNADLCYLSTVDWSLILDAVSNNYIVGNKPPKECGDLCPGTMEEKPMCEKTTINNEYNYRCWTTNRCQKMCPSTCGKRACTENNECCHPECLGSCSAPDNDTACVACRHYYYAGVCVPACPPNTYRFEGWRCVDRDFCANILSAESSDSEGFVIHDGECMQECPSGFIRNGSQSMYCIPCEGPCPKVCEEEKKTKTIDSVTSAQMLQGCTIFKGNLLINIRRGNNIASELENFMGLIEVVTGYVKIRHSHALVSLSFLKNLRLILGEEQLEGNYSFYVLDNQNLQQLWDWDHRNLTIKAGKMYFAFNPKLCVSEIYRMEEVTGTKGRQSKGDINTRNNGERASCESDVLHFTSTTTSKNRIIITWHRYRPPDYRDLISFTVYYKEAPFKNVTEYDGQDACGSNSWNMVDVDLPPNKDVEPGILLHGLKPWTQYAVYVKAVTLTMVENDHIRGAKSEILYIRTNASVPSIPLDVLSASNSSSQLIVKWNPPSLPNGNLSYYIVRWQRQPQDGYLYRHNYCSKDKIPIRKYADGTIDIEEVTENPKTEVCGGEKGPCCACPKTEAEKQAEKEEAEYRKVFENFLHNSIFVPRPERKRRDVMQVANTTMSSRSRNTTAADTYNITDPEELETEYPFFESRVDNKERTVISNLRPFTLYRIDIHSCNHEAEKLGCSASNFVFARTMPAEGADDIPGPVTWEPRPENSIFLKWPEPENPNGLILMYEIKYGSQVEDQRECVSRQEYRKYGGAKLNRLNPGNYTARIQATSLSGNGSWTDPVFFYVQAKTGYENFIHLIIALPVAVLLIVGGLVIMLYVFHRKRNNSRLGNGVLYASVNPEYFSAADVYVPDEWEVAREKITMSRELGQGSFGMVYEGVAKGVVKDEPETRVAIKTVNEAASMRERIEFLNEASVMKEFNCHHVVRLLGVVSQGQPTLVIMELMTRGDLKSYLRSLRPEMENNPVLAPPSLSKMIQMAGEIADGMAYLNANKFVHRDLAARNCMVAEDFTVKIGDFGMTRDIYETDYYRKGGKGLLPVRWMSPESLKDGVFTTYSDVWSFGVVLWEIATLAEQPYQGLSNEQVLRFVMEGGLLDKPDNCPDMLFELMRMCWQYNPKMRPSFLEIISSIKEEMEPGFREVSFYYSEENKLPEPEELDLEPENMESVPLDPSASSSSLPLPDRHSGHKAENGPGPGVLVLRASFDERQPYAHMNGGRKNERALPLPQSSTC

CN(C)CCOc1ccc(Nc2nccc(-c3c[nH]nc3-c3ccc(OCc4ccccc4)cc3)n2)cc1 [Example 6, {4-[3-(4-Benzyloxy-phenyl)-1H-pyrazol-4-yl]-pyrimidin-2-yl}-[4-(2-dimethylamino-ethoxy)-phenyl]-amine]
inhibition of IGF-1R (in words): shows inhibition
